Test results from publication PMC5218480 (PLoS ONE, 2017).

Tested on: MV-4-11 cells
Test: Gene expression microarray analysis (Affymetrix PrimeView) and GSEA
Assay type: cell-based, human
Design: RFU PODN (11730768_x_at) / Fold change /veh PODN (11730768_x_at) / RFU LINC00158 (11744669_a_at) / Fold change /veh LINC00158 (11744669_a_at) / RFU DUSP10 (11751237_a_at) / Fold change /veh DUSP10 (11751237_a_at) / RFU ID3 (11757404_x_at) / Fold change /veh ID3 (11757404_x_at) / RFU PLEKHG5 (11737974_s_at) / Fold change /veh PLEKHG5 (11737974_s_at) / RFU LRRC4B (11730491_at) / Fold change /veh LRRC4B (11730491_at) / RFU GIMAP4 (11747438_a_at) / Fold change /veh GIMAP4 (11747438_a_at) / RFU KRT8 (11758183_x_at) / Fold change /veh KRT8 (11758183_x_at) / RFU CNN1 (11734310_a_at) / Fold change /veh CNN1 (11734310_a_at) / RFU VPS37D (11726825_at) / Fold change /veh VPS37D (11726825_at) / RFU C10orf10 (11716522_x_at) / Fold change /veh C10orf10 (11716522_x_at) / RFU KIR2DL2 /// KIR2DL4 /// KIR2DL5A /// KIR2DL5B /// KIR2DS1 /// KIR2DS2 /// KIR2DS3 /// KIR2DS4 /// KIR3DL3 /// KIR3DL3 /// KIR3DS1 (11738374_at) / Fold change /veh KIR2DL2 /// KIR2DL4 /// KIR2DL5A /// KIR2DL5B /// KIR2DS1 /// KIR2DS2 /// KIR2DS3 /// KIR2DS4 /// KIR3DL3 /// KIR3DL3 /// KIR3DS1 (11738374_at) / RFU C1QL1 (11718748_at) / Fold change /veh C1QL1 (11718748_at) / RFU TMPRSS4 (11747572_a_at) / Fold change /veh TMPRSS4 (11747572_a_at) / RFU HAMP (11756126_x_at) / Fold change /veh HAMP (11756126_x_at) / RFU RNFT2 (11725882_a_at) / Fold change /veh RNFT2 (11725882_a_at) / RFU NR4A2 (11747474_a_at) / Fold change /veh NR4A2 (11747474_a_at) / RFU ABCC12 (11746883_a_at) / Fold change /veh ABCC12 (11746883_a_at) / RFU TMEM136 (11760407_x_at) / Fold change /veh TMEM136 (11760407_x_at) / RFU CLDN22 /// WWC2 (11732394_at) / Fold change /veh CLDN22 /// WWC2 (11732394_at) / RFU HLA-DPB1 (11760878_x_at) / Fold change /veh HLA-DPB1 (11760878_x_at) / RFU SPINT1 (11716480_a_at) / Fold change /veh SPINT1 (11716480_a_at) / RFU GAP43 (11754022_s_at) / Fold change /veh GAP43 (11754022_s_at) / RFU A4GNT (11735810_at) / Fold change /veh A4GNT (11735810_at) / RFU PRB3 (11715151_x_at) / Fold change /veh PRB3 (11715151_x_at) / RFU TUBB4B (11761932_at) / Fold change /veh TUBB4B (11761932_at) / RFU CAPN14 (11732068_a_at) / Fold change /veh CAPN14 (11732068_a_at) / RFU TMCC2 (11721928_a_at) / Fold change /veh TMCC2 (11721928_a_at) / RFU IRGQ (11745062_a_at) / Fold change /veh IRGQ (11745062_a_at) / RFU FAM174B (11720279_a_at) / Fold change /veh FAM174B (11720279_a_at) / RFU TMPRSS4 (11748680_a_at) / Fold change /veh TMPRSS4 (11748680_a_at) / RFU FAM212B (11763350_a_at) / Fold change /veh FAM212B (11763350_a_at) / RFU PLEKHG5 (11743358_a_at) / Fold change /veh PLEKHG5 (11743358_a_at) / RFU ZSCAN30 (11745921_a_at) / Fold change /veh ZSCAN30 (11745921_a_at) / RFU CMKLR1 (11741424_a_at) / Fold change /veh CMKLR1 (11741424_a_at) / RFU LOC101060620 /// MAPK8IP1 (11723275_at) / Fold change /veh LOC101060620 /// MAPK8IP1 (11723275_at) / RFU SPTSSB (11747773_x_at) / Fold change /veh SPTSSB (11747773_x_at) / RFU PRSS12 (11739890_at) / Fold change /veh PRSS12 (11739890_at) / RFU BIN1 (11741810_x_at) / Fold change /veh BIN1 (11741810_x_at) / RFU WNT11 (11732464_a_at) / Fold change /veh WNT11 (11732464_a_at) / RFU C10orf10 (11716521_a_at) / Fold change /veh C10orf10 (11716521_a_at) / RFU C5orf56 (11738089_at) / Fold change /veh C5orf56 (11738089_at) / RFU CYB561 (11721691_x_at) / Fold change /veh CYB561 (11721691_x_at) / RFU ANKRD19P (11752326_a_at) / Fold change /veh ANKRD19P (11752326_a_at) / RFU OR2T12 /// OR2T33 /// OR2T8 (11738714_s_at) / Fold change /veh OR2T12 /// OR2T33 /// OR2T8 (11738714_s_at) / RFU VCAN (11748164_a_at) / Fold change /veh VCAN (11748164_a_at) / RFU JSRP1 (11732532_at) / Fold change /veh JSRP1 (11732532_at) / RFU KRTAP10-11 (11738290_x_at) / Fold change /veh KRTAP10-11 (11738290_x_at) / RFU MYO3A (11730013_a_at) / Fold change /veh MYO3A (11730013_a_at) / RFU EBF3 (11725865_a_at) / Fold change /veh EBF3 (11725865_a_at) / RFU CAMK2N1 (11719241_x_at) / Fold change /veh CAMK2N1 (11719241_x_at) / RFU C5orf56 (11738088_a_at) / Fold change /veh C5orf56 (11738088_a_at) / RFU OLFML3 (11715873_a_at) / Fold change /veh OLFML3 (11715873_a_at) / RFU LOC100653217 /// NTM (11731650_a_at) / Fold change /veh LOC100653217 /// NTM (11731650_a_at) / RFU MAPK11 (11762145_a_at) / Fold change /veh MAPK11 (11762145_a_at) / RFU FIZ1 (11724087_x_at) / Fold change /veh FIZ1 (11724087_x_at) / RFU OASL (11726364_x_at) / Fold change /veh OASL (11726364_x_at) / RFU SOX15 (11748057_x_at) / Fold change /veh SOX15 (11748057_x_at) / RFU CD79A (11719716_a_at) / Fold change /veh CD79A (11719716_a_at) / RFU HIST1H1D (11736915_at) / Fold change /veh HIST1H1D (11736915_at) / RFU CASKIN2 (11723855_a_at) / Fold change /veh CASKIN2 (11723855_a_at) / RFU LOC730098 (11760151_x_at) / Fold change /veh LOC730098 (11760151_x_at) / RFU OR4N2 (11742367_at) / Fold change /veh OR4N2 (11742367_at) / RFU PRRT2 (11749266_a_at) / Fold change /veh PRRT2 (11749266_a_at) / RFU SNX32 (11753110_a_at) / Fold change /veh SNX32 (11753110_a_at) / RFU CDHR5 (11726645_a_at) / Fold change /veh CDHR5 (11726645_a_at) / RFU RCAN1 (11760418_a_at) / Fold change /veh RCAN1 (11760418_a_at) / RFU FAM167A (11723789_a_at) / Fold change /veh FAM167A (11723789_a_at) / RFU FAM26E (11764081_at) / Fold change /veh FAM26E (11764081_at) / RFU ISYNA1 (11749810_s_at) / Fold change /veh ISYNA1 (11749810_s_at) / RFU ACY1 (11761880_at) / Fold change /veh ACY1 (11761880_at) / RFU 11764098_at / Fold change /veh 11764098_at / RFU SAMD14 (11745864_x_at) / Fold change /veh SAMD14 (11745864_x_at) / RFU NPB (11741838_a_at) / Fold change /veh NPB (11741838_a_at) / RFU TMPRSS6 (11731388_a_at) / Fold change /veh TMPRSS6 (11731388_a_at) / RFU KRTAP10-2 (11738614_at) / Fold change /veh KRTAP10-2 (11738614_at) / RFU ARHGAP8 /// PRR5-ARHGAP8 (11727945_x_at) / Fold change /veh ARHGAP8 /// PRR5-ARHGAP8 (11727945_x_at) / RFU KRTAP5-7 /// NADSYN1 (11734609_at) / Fold change /veh KRTAP5-7 /// NADSYN1 (11734609_at) / RFU RASL12 (11751679_a_at) / Fold change /veh RASL12 (11751679_a_at) / RFU CDKN2B (11736163_a_at) / Fold change /veh CDKN2B (11736163_a_at) / RFU PRF1 (11729649_at) / Fold change /veh PRF1 (11729649_at) / RFU, ZNF638 /// ZNF638-IT1 / Fold change vs veh, ZNF638 /// ZNF638-IT1 / RFU, PANK3 / Fold change vs veh, PANK3 / RFU, SH3YL1 / Fold change vs veh, SH3YL1 / RFU, ZEB2 / Fold change vs veh, ZEB2 / RFU, NRIP1 / Fold change vs veh, NRIP1 / RFU, PTTG1IP / Fold change vs veh, PTTG1IP / RFU, CAPN2 / Fold change vs veh, CAPN2 / RFU, MED14 / Fold change vs veh, MED14 / RFU, SNORA58 / Fold change vs veh, SNORA58 / RFU, C1orf63 / Fold change vs veh, C1orf63 / RFU, LRRFIP1 / Fold change vs veh, LRRFIP1 / RFU, NDUFAF7 / Fold change vs veh, NDUFAF7 / RFU, SLC12A2 / Fold change vs veh, SLC12A2 / RFU, IBTK / Fold change vs veh, IBTK / RFU, ESF1 / Fold change vs veh, ESF1 / Fold change vs veh, TMEM50B / RFU, TAOK1 / Fold change vs veh, TAOK1 / RFU, ACBD3 / Fold change vs veh, ACBD3 / RFU, TMA16 / Fold change vs veh, TMA16 / RFU, RWDD3 / Fold change vs veh, RWDD3 / RFU, BCAT1 / Fold change vs veh, BCAT1 / RFU, EDEM3 / Fold change vs veh, EDEM3 / RFU, TMEM33 / Fold change vs veh, TMEM33 / RFU, WDR75 / Fold change vs veh, WDR75 / RFU, AHCTF1 / Fold change vs veh, AHCTF1 / RFU, TFRC / Fold change vs veh, TFRC / RFU, ZDHHC17 / Fold change vs veh, ZDHHC17 / RFU, NOM1 / Fold change vs veh, NOM1 / RFU, ARL8B / Fold change vs veh, ARL8B / RFU, ZBTB11 / Fold change vs veh, ZBTB11 / RFU, TAMM41 / Fold change vs veh, TAMM41 / RFU, KIAA1704 /// LOC100996395 / Fold change vs veh, KIAA1704 /// LOC100996395 / RFU, ING1 / Fold change vs veh, ING1 / RFU, TRMT61B / Fold change vs veh, TRMT61B / RFU, FUBP3 / Fold change vs veh, FUBP3 / RFU, TP53 / Fold change vs veh, TP53 / RFU, TNKS2 / Fold change vs veh, TNKS2 / RFU, ZFP14 / Fold change vs veh, ZFP14 / RFU, ACTR2 / Fold change vs veh, ACTR2 / RFU, PPP3R1 / Fold change vs veh, PPP3R1 / RFU, PIK3R1 / Fold change vs veh, PIK3R1 / RFU, HNRNPA1 / Fold change vs veh, HNRNPA1 / RFU, RNF170 / Fold change vs veh, RNF170 / RFU, ZNF28 / Fold change vs veh, ZNF28 / RFU, RNGTT / Fold change vs veh, RNGTT / RFU, OGT / Fold change vs veh, OGT / RFU, BRD1 / Fold change vs veh, BRD1 / RFU, MARS / Fold change vs veh, MARS / RFU, ZNF655 / Fold change vs veh, ZNF655 / RFU, FAHD1 / Fold change vs veh, FAHD1 / RFU, BDP1 / Fold change vs veh, BDP1 / RFU, LRRCC1 / Fold change vs veh, LRRCC1 / RFU, ARID1A / Fold change vs veh, ARID1A / RFU, ZNF146 / Fold change vs veh, ZNF146 / RFU, ZNF330 / Fold change vs veh, ZNF330 / RFU, GPN3 / Fold change vs veh, GPN3 / RFU, C9orf123 / Fold change vs veh, C9orf123 / RFU, N4BP2L2 / Fold change vs veh, N4BP2L2 / RFU, ARFIP1 / Fold change vs veh, ARFIP1 / RFU, FAM179B / Fold change vs veh, FAM179B / RFU, BCL10 / Fold change vs veh, BCL10 / RFU, UHRF1BP1L / Fold change vs veh, UHRF1BP1L / RFU, BET1 / Fold change vs veh, BET1 / RFU, CNOT2 / Fold change vs veh, CNOT2 / RFU, ZNF268 / Fold change vs veh, ZNF268 / Fold change vs veh, ZNF507 / RFU, DGCR2 / Fold change vs veh, DGCR2 / RFU, WDSUB1 / Fold change vs veh, WDSUB1 / Fold change vs veh, HSP90B1 /// MIR3652 / RFU, ADSS / Fold change vs veh, ADSS / RFU, GK / Fold change vs veh, GK / RFU, ZNF148 / Fold change vs veh, ZNF148 / RFU, TAF9 / Fold change vs veh, TAF9 / RFU, SLC1A5 / Fold change vs veh, SLC1A5 / RFU, SLMO2 / Fold change vs veh, SLMO2 / RFU, ABCC4 / Fold change vs veh, ABCC4 / RFU, LOC101060439 /// RAP1B / Fold change vs veh, LOC101060439 /// RAP1B / RFU, RFX7 / Fold change vs veh, RFX7 / RFU, GTPBP10 / Fold change vs veh, GTPBP10 / RFU, CNEP1R1 / Fold change vs veh, CNEP1R1 / RFU, BIVM-ERCC5 /// ERCC5 / Fold change vs veh, BIVM-ERCC5 /// ERCC5 / RFU, ILF3 / Fold change vs veh, ILF3 / RFU 11762660_at / Fold change /veh 11762660_at / RFU VCAN (11757783_s_at) / Fold change /veh VCAN (11757783_s_at) / RFU DDX43 (11728927_at) / Fold change /veh DDX43 (11728927_at) / RFU KRT8 (11758188_x_at) / Fold change /veh KRT8 (11758188_x_at) / RFU NKD1 (11759106_at) / Fold change /veh NKD1 (11759106_at) / RFU SRD5A1 (11742802_a_at) / Fold change /veh SRD5A1 (11742802_a_at) / RFU TPSAB1 /// TPSB2 (11721975_s_at) / Fold change /veh TPSAB1 /// TPSB2 (11721975_s_at) / RFU GSTM3 (11746129_a_at) / Fold change /veh GSTM3 (11746129_a_at) / RFU IL23R (11737362_x_at) / Fold change /veh IL23R (11737362_x_at) / RFU TMEM51 (11727254_a_at) / Fold change /veh TMEM51 (11727254_a_at) / RFU PIWIL2 (11732686_x_at) / Fold change /veh PIWIL2 (11732686_x_at) / RFU ORM1 (11744905_x_at) / Fold change /veh ORM1 (11744905_x_at) / RFU CCDC152 (11743942_at) / Fold change /veh CCDC152 (11743942_at) / RFU ECM1 (11717891_a_at) / Fold change /veh ECM1 (11717891_a_at) / RFU IL23R (11748794_a_at) / Fold change /veh IL23R (11748794_a_at) / RFU TNFAIP8L3 (11732012_x_at) / Fold change /veh TNFAIP8L3 (11732012_x_at) / RFU MBOAT4 (11741988_at) / Fold change /veh MBOAT4 (11741988_at) / RFU 11764193_at / Fold change /veh 11764193_at / RFU TMEM53 (11763286_at) / Fold change /veh TMEM53 (11763286_at) / RFU MAGEB2 (11727129_at) / Fold change /veh MAGEB2 (11727129_at) / RFU TMEM200A (11744735_a_at) / Fold change /veh TMEM200A (11744735_a_at) / RFU CCDC152 (11751479_a_at) / Fold change /veh CCDC152 (11751479_a_at) / RFU FAM211A (11726209_a_at) / Fold change /veh FAM211A (11726209_a_at) / RFU RGS16 (11746705_a_at) / Fold change /veh RGS16 (11746705_a_at) / RFU VCAN (11755009_s_at) / Fold change /veh VCAN (11755009_s_at) / RFU RHOB (11743442_s_at) / Fold change /veh RHOB (11743442_s_at) / RFU RGS16 (11720943_a_at) / Fold change /veh RGS16 (11720943_a_at) / RFU RGS16 (11720944_at) / Fold change /veh RGS16 (11720944_at) / RFU, VPS4B / Fold change vs veh, VPS4B / RFU, CREB1 / Fold change vs veh, CREB1 / RFU, DNAJC13 / Fold change vs veh, DNAJC13 / RFU, GNAQ / Fold change vs veh, GNAQ / RFU, CDK5R1 / Fold change vs veh, CDK5R1 / RFU, ZRANB3 / Fold change vs veh, ZRANB3 / RFU, CUL4A / Fold change vs veh, CUL4A / RFU, CCNY / Fold change vs veh, CCNY / RFU, UFL1 / Fold change vs veh, UFL1 / RFU, COG3 / Fold change vs veh, COG3 / RFU, DIAPH2 / Fold change vs veh, DIAPH2 / RFU, SKA2 / Fold change vs veh, SKA2 / RFU, AFF3 / Fold change vs veh, AFF3 / RFU, LMF1 / Fold change vs veh, LMF1 / RFU, IPO11 / Fold change vs veh, IPO11 / RFU, DFFB / Fold change vs veh, DFFB / RFU, FOXP1 / Fold change vs veh, FOXP1 / RFU, CARD8 / Fold change vs veh, CARD8 / RFU, STRN3 / Fold change vs veh, STRN3 / RFU, ADK / Fold change vs veh, ADK / RFU, RASSF2 / Fold change vs veh, RASSF2 / RFU, WIPF1 / Fold change vs veh, WIPF1 / RFU, LARP1B / Fold change vs veh, LARP1B / RFU, RASA1 / Fold change vs veh, RASA1 / RFU, RB1 / Fold change vs veh, RB1 / RFU, PPFIA1 / Fold change vs veh, PPFIA1 / RFU, MAT2A / Fold change vs veh, MAT2A / RFU, CCT5 / Fold change vs veh, CCT5 / RFU, WDR92 / Fold change vs veh, WDR92 / RFU, CUX1 / Fold change vs veh, CUX1 / RFU, TTC7A / Fold change vs veh, TTC7A / RFU, TMEM135 / Fold change vs veh, TMEM135 / RFU, DEPTOR / Fold change vs veh, DEPTOR / RFU, CPM / Fold change vs veh, CPM / RFU, DNAJB6 / Fold change vs veh, DNAJB6 / RFU, CACNA2D3 / Fold change vs veh, CACNA2D3 / RFU, DTX4 / Fold change vs veh, DTX4 / RFU, TFCP2 / Fold change vs veh, TFCP2 / RFU, GMCL1 /// GMCL1P1 / Fold change vs veh, GMCL1 /// GMCL1P1 / RFU, AEBP2 / Fold change vs veh, AEBP2 / RFU, SNHG1 /// SNORD22 /// SNORD25 /// SNORD26 /// SNORD27 /// SNORD28 /// SNORD29 /// SNORD31 / Fold change vs veh, SNHG1 /// SNORD22 /// SNORD25 /// SNORD26 /// SNORD27 /// SNORD28 /// SNORD29 /// SNORD31 / Fold change (Aza/veh), C12orf56 (ProbeSet 11735607_a_at) / Fold change (ACY-1035/veh), C12orf56 (ProbeSet 11735607_a_at) / Fold change (Aza/veh), FGFR1OP (ProbeSet 11751329_s_at) / Fold change (ACY-1035/veh), FGFR1OP (ProbeSet 11751329_s_at) / Fold change (Aza/veh), VPS36 (ProbeSet 11739960_a_at) / Fold change (ACY-1035/veh), VPS36 (ProbeSet 11739960_a_at) / RFU SYPL1 (11715823_x_at) / Fold change /veh SYPL1 (11715823_x_at) / RFU IGFBP7 (11715501_s_at) / Fold change /veh IGFBP7 (11715501_s_at) / RFU REEP3 (11722064_at) / Fold change /veh REEP3 (11722064_at) / RFU IGLL1 (11728026_x_at) / Fold change /veh IGLL1 (11728026_x_at): dose or concentration left out as unconfirmed
Conditions: ProbeSet 11731093_s_at; LIST B

Nc1ncn([C@@H]2O[C@H](CO)[C@@H](O)[C@H]2O)c(=O)n1 [azacitidine]
RFU, BRD1: 186.03 RFU
